Assay [1] has as its system Trichophyton mentagrophytes. Kind of assay: Antimicrobial activity against Trichophyton mentagrophytes IFO 40996. It counts as functional.
For assay [2], the system named is Candida albicans. The experiment in a line: Antimicrobial activity against Candida albicans ATCC 10231. In kind it is functional.
The test system of assay [3] is Staphylococcus aureus. The experiment in a line: Antimicrobial activity against Staphylococcus aureus ATCC 6538p. In kind it is functional.
The subject of assay [4] is Trichophyton rubrum. Kind of assay: Antimicrobial activity against Trichophyton rubrum IFO 9185. In kind it is functional.
The test system of assay [5] is K562. The experiment in a line: Cytotoxicity against human K562 cells. It counts as functional. The following applies: read-out: LC50 (the source's name).
Assay [6] concerns the target T1, Sortase A (Staphylococcus aureus, UniProt Q9S446).
T1 sequence (Q9S446 whole entry): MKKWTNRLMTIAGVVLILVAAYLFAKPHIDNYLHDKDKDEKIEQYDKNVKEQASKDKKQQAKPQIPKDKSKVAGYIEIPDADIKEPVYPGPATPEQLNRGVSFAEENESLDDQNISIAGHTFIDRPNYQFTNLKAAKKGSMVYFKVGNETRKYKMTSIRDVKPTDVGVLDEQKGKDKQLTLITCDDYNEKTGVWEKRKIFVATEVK
Kind of assay: Inhibition of recombinant Staphylococcus aureus ATCC 6538p sortase lacking the N-terminal membrane anchor domain expressed in Escherichia coli cells TOP10 using Dabcyl-QALPETGEE-Edans substrate measured after 1 hr by fluorescence S13 spectrophotometry.

Assay [7] concerns the target Sodium/potassium-transporting ATPase. The experiment in a line: Inhibition of human Na(+)/K(+) ATPase assessed as reduction in ouabain-sensitive and K(+)-dependent cleavage of fluorescent pseudosubstrate 3-O-methylfluorescein phosphate by fluorometric method. It counts as protein-complex assay.
Assay [8] deals with Escherichia coli. The experiment in a line: Antimicrobial activity against Escherichia coli ATCC 35270. In kind it is functional.
Assay [9] relates to Salmonella typhimurium. Kind of assay: Antimicrobial activity against Salmonella Typhimurium ATCC 14028. It counts as functional, Salmonella enterica subsp. enterica serovar Typhimurium. As to conditions: Salmonella enterica.
The subject of assay [10] is Aspergillus fumigatus. The experiment in a line: Antimicrobial activity against Aspergillus fumigatus HIC 6094. In kind it is functional.
The test system of assay [11] is Micrococcus luteus. The experiment in a line: Antimicrobial activity against Micrococcus luteus IFO 12708. It counts as functional.
The subject of assay [12] is Bacillus subtilis. Kind of assay: Antimicrobial activity against Bacillus subtilis ATCC 6633. In kind it is functional.
Assay [13] has as its system Proteus vulgaris. The experiment in a line: Antimicrobial activity against Proteus vulgaris ATCC 3851. In kind it is functional.
Assay [14] has as its target Isocitrate lyase (Candida albicans, UniProt Q9P8Q7). Kind of assay: Inhibition of Candida albicans isocitrate lyase.

A value given as a limit tells only on which side of the number the result lay.

Chain of Isocitrate lyase (Q9P8Q7 whole entry): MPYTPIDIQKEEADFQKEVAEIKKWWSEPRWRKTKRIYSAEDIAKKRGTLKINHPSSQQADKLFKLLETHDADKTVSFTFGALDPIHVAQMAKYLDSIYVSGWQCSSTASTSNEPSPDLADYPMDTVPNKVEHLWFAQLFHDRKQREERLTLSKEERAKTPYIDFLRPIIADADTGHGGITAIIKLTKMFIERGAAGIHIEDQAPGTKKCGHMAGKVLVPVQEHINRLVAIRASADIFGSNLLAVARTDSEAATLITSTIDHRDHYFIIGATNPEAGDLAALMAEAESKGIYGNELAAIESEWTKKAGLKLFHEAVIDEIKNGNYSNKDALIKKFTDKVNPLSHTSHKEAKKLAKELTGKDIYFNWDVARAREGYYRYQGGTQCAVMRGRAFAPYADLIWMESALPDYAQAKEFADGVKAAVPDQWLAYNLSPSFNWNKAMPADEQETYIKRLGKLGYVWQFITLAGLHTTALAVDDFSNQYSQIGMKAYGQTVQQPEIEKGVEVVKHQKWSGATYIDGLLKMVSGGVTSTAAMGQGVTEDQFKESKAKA

Take `CC1(C)CCC[C@]2(C)[C@H]3CC/C(=C\OS(=O)(=O)[O-])[C@H](CCC4=CC(=O)OC4)[C@@]3(C)CC[C@@H]12.[Na+]`: the MIC in [1], in assay [2], in [3], in assay [4], in assay [8] and in assay [9] was over 100 µg/mL throughout. Also, the MIC in [10], in assay [11], in assay [12] and in [13] was over 100 µg/mL in each case. The CC50 in assay [5] is 56 µM. The values for the IC50 in assay [6], in [7] and in assay [14] were over 200 µM, 19 µM and 150 µM, respectively.

For the compound `CC1(C)CCC[C@]2(C)[C@H]3CC/C(=C\OS(=O)(=O)[O-])[C@H](CCc4ccoc4)[C@@]3(C)CC[C@@H]12.[Na+]` [SUVANINE'S SODIUM SALT], the minimum inhibitory concentration (MIC) is over 100 µg/mL in assay [1]; over 100 µg/mL in assay [2]; 25 µg/mL in [3]; over 100 µg/mL in [4]; over 100 µg/mL in assay [8]; 50 µg/mL in assay [9]. For the same compound, the minimal inhibitory concentration (MIC) in [10] is over 100 µg/mL; in assay [11] it was 25 µg/mL; in assay [12], 1.56 µg/mL; in [13], 25 µg/mL. Further, in assay [5], the CC50 came to 16 µM. Moreover, the IC50 in [6] was over 200 µM; in assay [7], 9 µM; in [14], 5 µM.

In the case of `CC1=CCC[C@@H](C)[C@]1(C)CC/C(C)=C/CCC(CCCc1ccoc1)COS(=O)(=O)[O-].[Na+]` (some centres not stated) [HALISULFATE 2], the minimum inhibitory concentration (MIC) in [1], in [2], in assay [3], in assay [4], in assay [8] and in assay [9] was over 100 µg/mL throughout. Moreover, the MIC is over 100 µg/mL in [10], over 100 µg/mL in assay [11], 6.25 µg/mL in assay [12] and 25 µg/mL in assay [13]. Further, the CC50 in [5] is over 200 µM. Besides, the IC50 in assay [6] is over 200 µM; in [7], 5 µM; in assay [14], 24 µM.

The values above are taken from ChEMBL document CHEMBL1817623, “Sesterterpenes from the tropical sponge Coscinoderma sp” (J Nat Prod, 2011).
